In brackets after ≈: the same amount, converted by molar mass.
Key:
[1] = Total antioxidant capacity (TAC), phosphomolybdenum method; conditions: samples at 100 µg/mL; mean ± SE, n = 3
Procedure: 1. Preparation of SB-CuO-NPs
The copper oxide nanoparticles (CuO-NPs) were biosynthesized using a concentrated anhydrous copper sulfate solution (1 mM) as a metal precursor based […]
dissolved in 100 ml of deionized water to form a 0.1 M concentration. The Schiff base (SB) was mixed with the metal solution in a ratio of 4:1. The SB-CuO-NPs was monitored by a color change. They were dried at 80 °C after centrifuging the colloidal solution at 4000 rpm for 15 min.
2. Characterization of the SB-CuO-NPs
The spectra of the SB-CuO-NPs were characterized using a Shimadzu UV-VIS recording spectrophotometer UV-240 after diluting the samples (10-fold) with deionized water at λ 200 - 800 nm. Their surface zeta potentials were measured using the laser zeta meter (Malvern Zetasizer 2000, Malvern, Worcestershire, UK) following […]
Moreover, their average hydrodynamic sizes were determined using the laser diffraction method with multiple scattering techniques employing dynamic light scattering (DLS) (Malvern Zetasizer Nano ZS, Malvern Instruments Ltd., Malvern, United Kingdom) (Murdock et al., 2008). […]
All biological activities were assessed in the prepared samples at equal concentrations (100 µg/mL). […]
After cooling to room temperature, the absorbance was measured at 695 nm against the blank. […] The antioxidant capacity was expressed as mg gallic acid equivalent per gram weight. […]

[2] = Iron reducing power (IRP); conditions: samples at 100 µg/mL; mean ± SE, n = 3
Procedure: ammonium molybdate. Methanol (80%) was used in place of the sample for the blank. The tubes were sealed and incubated in a boiling water bath for 90 minutes.
After cooling to room temperature, the absorbance was measured at 695 nm against the blank. […] was used at the same concentrations as a standard. The antioxidant capacity was expressed as mg gallic acid equivalent per gram weight.
The iron reducing power was determined as µg/mL using the method proposed by Oyaizu (1986). In brief, 1ml of the tested sample (at each concentration) was combined with 1mL of 200mM sodium phosphate buffer (pH 6.6) and 1mL of 1% potassium ferricyanide. […] The absorbance was measured at 700nm against a blank prepared without the sample. […] A high absorbance at 700nm indicates a higher reducing power in the reaction mixture.
(§1) The 1,1-Diphenyl-2-picryl-hydrazyl (DPPH) radical scavenging activities were evaluated using the method described by Rahman et al. An antioxidant substance capable of donating a hydrogen atom to a solution containing DPPH- can reduce the stable free radical, causing the solution to change color from violet to pale yellow.
The remaining DPPH- radical was quantified by measuring the intensity of a light-purple colored DPPH methanol solution in the visible range at 518 nm using a spectroscopic method. […]

DPPH radical scavenging = conditions: mean ± SE, n = 3
Procedure: as §1
The remaining DPPH- radical was quantified by measuring the intensity of a light-purple colored DPPH methanol solution in the visible range at 518 nm using a spectroscopic method. Two mill iliters of a DPPH solution (100 µ M) in ethanol were mixed with 2 mL of the sample (at each concentration). The reaction mixture for each concentration was thoroughly vortexed and then incubated in the dark at room temperature for 30 minutes. The absorbance was then measured spectrophotometrically at 518 nm against a blank (ethanol). For the control, 2 mL of ethanol was added instead of the sample and run simultaneously with the test.
Ascorbic acid was used at the same concentrations as a positive control. P ercent […]
inhibition of the DPPH free radical was calculated. […]

ABTS radical scavenging = conditions: mean ± SE, n = 3
Procedure: The procedure for the 2,2'-azinobis-(3-ethylbenzothiazoline-6-sulfonic acid) (ABTS) […]
solution (7 mM) and potassium persulfate solution (2.4 mM). The working solution was prepared by mixing the two stock solutions in equal quantities and allowing them to react at room temperature in a dark place for 14 hours. The solution was then diluted by mixing 1 mL of ABTS solution with 60 mL of methanol to obtain an absorbance of 0.706 ± 0.01 units at 734 nm using a spectrophotometer. Fresh ABTS solution was prepared for each assay. The tested samples (at each concentration) were allowed to react with 1 mL of the ABTS solution, and the absorbance was taken at 734 nm after 7 minutes using a spectrophotometer. […]

NO radical scavenging = conditions: mean ± SE, n = 3
Procedure: The in vitro biological applications of the SB and SB-CuO-NPs, including antioxidant, scavenging, anti-diabetic, anti-Alzheimer, anti-arthritic, anti-inflammatory, cytotoxic effects, and enzyme inhibition, were assessed using methods described in the literature (See Supplementary Materials).
During the current study, the free radical scavenging capacity of SB-CuO-NPs, SB, and ascorbic acid (positive control) was evaluated using the DPPH, ABTS, and NO radical methods. The scavenging activity is used to predict antioxidant efficacy, a mechanism in which antioxidants inhibit lipid oxidation. The lower IC50 value indicates a stronger ability of the SB-CuO-NPs to act as radical scavengers, whereas the higher IC50 value indicates a lower scavenging activity. […] The lower the IC50 value, the greater the antioxidant activity.

[3] = tested on: caspase-3 in HepG-2 cells; assay: Caspase-3 ELISA in treated HepG-2 cells; format: cell-based, human; conditions: HepG-2 cells treated at the IC50 value, mean ± SE, n = 3
Procedure: (§2) Following the treatment of HepG-2, Caco-2, A549, and BJ-1 cells with the SB-CuO-NPs at their respective IC50 values, as illustrated in Figure 9 and detailed in Table 5, an assessment of the activities of the caspase-3 and Bcl-2 enzymes was conducted in the treated cells. […] This mechanism ultimately triggers apoptosis. Additionally, the increased activity of caspase-3 results in a decrease in the expression of cyclin D1 and CDK-2 mRNA, thereby promoting the arrest of the G1 phase of the cell cycle. Othman et al. further noted that the biosynthesized M-NPs facilitate apoptosis by inhibiting the expression of the PI3K/AKT and Ras/Raf/ERK protein signaling pathways.
(§3) Invitrogen Corporation, following the manufacturer's instructions.

Bcl-2 in HepG-2 cells = assay: Bcl-2 ELISA in treated HepG-2 cells; format: cell-based, human; conditions: HepG-2 cells treated at the IC50 value, mean ± SE, n = 3
Procedure: as §2, §3

[4] = tested on: caspase-3 in Caco-2 cells; assay: Caspase-3 ELISA in treated Caco-2 cells; format: cell-based, human; conditions: Caco-2 cells treated at the IC50 value, mean ± SE, n = 3
Procedure: as §2, §3

Bcl-2 in Caco-2 cells = assay: Bcl-2 ELISA in treated Caco-2 cells; format: cell-based, human; conditions: Caco-2 cells treated at the IC50 value, mean ± SE, n = 3
Procedure: as §2, §3

caspase-3 in A549 cells = assay: Caspase-3 ELISA in treated A549 cells; format: cell-based, human; conditions: A549 cells treated at the IC50 value, mean ± SE, n = 3
Procedure: as §2, §3

Bcl-2 in A549 cells = assay: Bcl-2 ELISA in treated A549 cells; format: cell-based, human; conditions: A549 cells treated at the IC50 value, mean ± SE, n = 3
Procedure: as §2, §3

caspase-3 in BJ-1 cells = assay: Caspase-3 ELISA in treated BJ-1 cells; format: cell-based, human; conditions: BJ-1 cells treated at the IC50 value, mean ± SE, n = 3
Procedure: as §2, §3

Bcl-2 in BJ-1 cells = assay: Bcl-2 ELISA in treated BJ-1 cells; format: cell-based, human; conditions: BJ-1 cells treated at the IC50 value, mean ± SE, n = 3
Procedure: as §2, §3

[5] = tested on: human lung cancer (A549) cell line; assay: MTT cytotoxicity, A549
MTT cytotoxicity, BJ-1 = conditions: human, BJ-1 normal fibroblast cells
[6] = tested on: normal human fibroblast (BJ-1) cell line; assay: MTT cytotoxicity, BJ-1; conditions: Homo sapiens, Fibroblast, 48 h, read-out: Median Inhibitory Concentration (IC50) BJ-1
[7] = tested on: human hepatocellular carcinoma (HepG-2) cell line; assay: MTT cytotoxicity, HepG-2
[8] = tested on: human colon cancer (Caco-2) cell line; assay: MTT cytotoxicity, Caco-2
[9] = biological target: T1, 5-LOX enzyme (human recombinant) (Homo sapiens, UniProt P09917); assay: 5-Lipoxygenase inhibition assay; format: biochemical; conditions: at 100 µg/mL; mean ± SE, n = 3; read-out: 5-LOX Inhib. (%)
T1 construct: purchased Sigma-Aldrich 437996
T1 sequence (P09917 1-674): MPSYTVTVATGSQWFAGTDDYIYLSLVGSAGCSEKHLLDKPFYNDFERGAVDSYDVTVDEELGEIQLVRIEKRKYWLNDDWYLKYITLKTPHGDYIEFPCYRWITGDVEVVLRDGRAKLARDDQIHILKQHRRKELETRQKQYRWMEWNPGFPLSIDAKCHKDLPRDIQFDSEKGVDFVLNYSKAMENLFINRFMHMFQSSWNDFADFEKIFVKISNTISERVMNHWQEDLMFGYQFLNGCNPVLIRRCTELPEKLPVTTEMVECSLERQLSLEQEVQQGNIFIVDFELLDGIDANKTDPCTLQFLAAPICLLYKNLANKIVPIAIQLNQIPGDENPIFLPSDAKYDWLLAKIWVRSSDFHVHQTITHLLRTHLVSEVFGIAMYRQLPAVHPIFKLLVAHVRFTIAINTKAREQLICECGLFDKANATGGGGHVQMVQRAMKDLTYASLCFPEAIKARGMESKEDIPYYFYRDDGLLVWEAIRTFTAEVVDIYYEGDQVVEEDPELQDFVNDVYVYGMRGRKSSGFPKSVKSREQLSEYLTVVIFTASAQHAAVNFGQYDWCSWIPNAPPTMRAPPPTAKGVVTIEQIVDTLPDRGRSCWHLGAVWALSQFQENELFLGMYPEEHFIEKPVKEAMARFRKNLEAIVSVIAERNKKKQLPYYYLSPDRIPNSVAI

Structure (SMILES): O=C1O[C@H]([C@@H](O)CO)C(O)=C1O [Ascorbic Acid, reference compound]
- Antioxidant activity TAC [1]: 83.75 ± 0.13 mg gallic acid/g
- Antioxidant activity IRP [2]: 66.00 ± 0.13 µg/mL
- Scavenging activity DPPH Inhib. (%) (DPPH radical scavenging; at 100 µg/mL): 61.68 ± 0.12%
- Scavenging activity DPPH IC50 (DPPH radical scavenging): 4.50 ± 0.03 µg/mL
- Scavenging activity ABTS Inhib. (%) (ABTS radical scavenging; at 100 µg/mL): 65.43 ± 0.12%
- Scavenging activity ABTS IC50 (ABTS radical scavenging): 3.99 ± 0.04 µg/mL
- Scavenging activity NO Inhib. (%) (NO radical scavenging; at 100 µg/mL): 53.93 ± 0.12%
- Scavenging activity NO IC50 (NO radical scavenging): 5.24 ± 0.02 µg/mL

Structure (SMILES): COc1cccc2c1C(=O)c1c(O)c3c(c(O)c1C2=O)C[C@@](O)(C(=O)CO)C[C@@H]3O[C@H]1C[C@H](N)[C@H](O)[C@H](C)O1 [Doxorubicin, reference compound]
- Caspase-3 [3]: 306.04 ± 1.23 pg/mL
- Bcl-2 (Bcl-2 in HepG-2 cells): 4.00 ± 0.02 ng/mL
- Caspase-3 [4]: 265.13 ± 0.12 pg/mL
- Bcl-2 (Bcl-2 in Caco-2 cells): 2.04 ± 0.01 ng/mL
- Caspase-3 (caspase-3 in A549 cells): 247.96 ± 0.08 pg/mL
- Bcl-2 (Bcl-2 in A549 cells): 4.51 ± 0.01 ng/mL
- Caspase-3 (caspase-3 in BJ-1 cells): 200.43 ± 0.08 pg/mL
- Bcl-2 (Bcl-2 in BJ-1 cells): 2.72 ± 0.01 ng/mL
- viability at 6.25 µg/mL ([5]; A549): 77.4%
- viability at 12.5 µg/mL ([5]; A549): 51%
- viability at 25 µg/mL ([5]; A549): 24.3%
- viability at 50 µg/mL ([5]; A549): 12.1%
- viability at 100 µg/mL ([5]; A549): 5.17%
- IC50 ([5]; A549, 48 h, read-out: Median Inhibitory Concentration (IC50) A549): 14.4 ± 1.12 µg/mL (≈ 26.4 µM)
- viability at 48 h, 6.25 μg/mL (MTT cytotoxicity, BJ-1): 87.4%
- viability at 48 h, 12.5 μg/mL (MTT cytotoxicity, BJ-1): 68%
- viability at 48 h, 25 μg/mL (MTT cytotoxicity, BJ-1): 42.3%
- viability at 48 h, 50 μg/mL (MTT cytotoxicity, BJ-1): 20.1%
- viability at 48 h, 100 μg/mL (MTT cytotoxicity, BJ-1): 13.2%
- IC50 [6]: 22 ± 1.51 µg/mL (≈ 40.5 µM)
- viability at 6.25 µg/mL ([7]; HepG2): 74.4%
- viability at 12.5 µg/mL ([7]; HepG2): 59%
- viability at 25 µg/mL ([7]; HepG2): 34.3%
- viability at 50 µg/mL ([7]; HepG2): 18.1%
- viability at 100 µg/mL ([7]; HepG2): 9.17%
- IC50 ([7]; HepG2, 48 h, read-out: Median Inhibitory Concentration (IC50) HepG-2): 15.5 ± 1.98 µg/mL (≈ 28.5 µM)
- viability at 6.25 µg/mL ([8]; Caco-2): 70.2%
- viability at 12.5 µg/mL ([8]; Caco-2): 35.2%
- viability at 25 µg/mL ([8]; Caco-2): 5.64%
- viability at 50 µg/mL ([8]; Caco-2): 4.48%
- viability at 100 µg/mL ([8]; Caco-2): 1.3%
- IC50 ([8]; Caco-2, 48 h, read-out: Median Inhibitory Concentration (IC50) Caco-2): 11.1 ± 1.09 µg/mL (≈ 20.5 µM)

Structure (SMILES): CC(c1cc2ccccc2s1)N(O)C(N)=O (centres unmarked) [Zileuton, reference compound]
- inhibition at 100 µg/mL [9]: 46.99 ± 0.13%
